According to patent US4202941A, “Glycerol oxidase and process for the production thereof and method for the quantitative determination of glycerol by glycerol oxidase” (Kyowa Hakko Kogyo, Co. Ltd., priority 1977, dated 1980):
Where two headings read alike, the source gives them in different places.

Tests used:
[1] = tested on: Enzyme of the genus Aspergillus (glycerol oxidase); assay: Inhibition of enzyme activity by 1 mM inhibitors (4-AA method); type: biochemical, Aspergillus japonicus KY-45; set-up: key: % of activity without inhibitor (no inhibitor = 100)
Procedure: (§1) The enzyme activity is expressed by "unit." A "unit" of the enzyme activity is defined as that amount of enzyme which will decompose 1μ mole of glycerol at 37° C. in 1 minute in the presence of oxygen. The determination of the enzyme activity is carried out as follows: glycerol is reacted with glycerol oxidase with stirring to form hydrogen peroxide, and 4-aminoantipyrine and phenol are reacted with the resulting hydrogen peroxide in the presence of peroxidase to derive quinoneimine pigment. The optical density at 500 nm of the resulting quinoneimine pigment is measured to determine the amount of generated hydrogen peroxide, whereby the enzyme activity is determined (which will be hereinafter referred to as "4-AA method").
(§2) Enzymes activities obtained by adding 1 mM of various inhibitors are shown in Table 1, the activity of the enzyme with no addition of the inhibitor being defined as 100. The activities are measured according to 4-AA method deriving a pigment of 4-aminoantipyrine system from the generated H2 O2.
(§3) Enzymological and physico-chemical properties of glycerol oxidase thus obtained are described below (as glycerol oxidase, the respective purified preparates obtained in Examples 1 and 2, are used).
(§4) Determination of the enzyme activity is carried out by reacting hydrogen peroxide generated by the enzyme with 4-aminoantipyrine and phenol in the presence of peroxidase to obtain quinoneimine pigment, and quantitatively determining the resulting quinoneimine pigment.
(§5) The reagents (1)-(6) are mixed in a test tube, and then shaken at 37° C. for 5 minutes. Then, enzyme solution is added thereto, and thus obtained mixture is made up to 3 ml with ammonium buffer solution. Reaction is carried out at 37° C. for 10 minutes with shaking. On the other hand, similar procedure is repeated using water in place of the test solution as a reference. The optical density of the reaction solution at 500 nm is measured, and a difference from the control is determined as Δ OD (optical density).
(§6) On the other hand, the absorption coefficient of 0.5 mM of quinoneimine pigment is reported as 5.33 [Clin. Chem. 20, 470 (1974)], and thus, if the optical density (Δ OD) at 500 nm of 3 ml of the reaction solution obtained according to the foregoing operational procedure IV-(c) is represented by a, the desired enzyme activity (A) per milliliter of the enzyme solution is calculated from the following formula: [formula]

[2] = tested on: Enzyme of the genus Neurospora (glycerol oxidase); assay: as above; type: biochemical, Neurospora crassa KY-462; set-up: key: % of activity without inhibitor (no inhibitor = 100)
Procedure: as §1, §2, §3, §4, §5, §6

[3] = tested on: Enzyme of the genus Aspergillus (glycerol oxidase); assay: Substrate specificity, relative activity by 4-AA method; type: biochemical, Aspergillus japonicus KY-45; conditions: substrate equimolar to glycerol
Procedure: as §1, §3
(§7) The relative activity is measured using other substrates in equimolar amounts to that of glycerol in the procedure for measuring the activity according to 4-AA method.
(§8) The relative activities on other substrates are given in Table 3, the activity on glycerol being defined as 100.
as §5

[4] = tested on: Enzyme of the genus Neurospora (glycerol oxidase); assay: as above; type: biochemical, Neurospora crassa KY-462; conditions: substrate equimolar to glycerol
Procedure: as §1, §3, §7, §8, §5

[5] = 1 mM inhibitor, Enzyme of the genus Aspergillus, 4-AA method
[6] = 1 mM inhibitor, Enzyme of the genus Neurospora, 4-AA method

| SMILES | Enzyme activity on adding inhibitor (activity with no inhibitor defined as 100) [1, 5] | Relative activity on substrate (activity on glycerol defined as 100) [3] | Relative activity on substrate (activity on glycerol defined as 100) [4] | further results |
| --- | --- | --- | --- | --- |
| O=S(=O)([O-])[O-].[Cu+2] [CuSO4] | 10 | – | – | Enzyme activity on adding inhibitor (activity with no inhibitor defined as 100) [2, 6]: 20 |
| O=C(O)CN(CCN(CC(=O)O)CC(=O)O)CC(=O)O [EDTA] | – | – | – | Enzyme activity on adding inhibitor (activity with no inhibitor defined as 100) [1]: 105; Enzyme activity on adding inhibitor (activity with no inhibitor defined as 100) [2, 6]: 80 |
| CC(O)CCO (stereo not shown) [1,3-butanediol] | – | 2.0 | 0 | – |
| O=P(O)(O)OCC(O)CO (stereo not shown) [Glycerol-3-phosphoric acid] | – | 0.4 | 21 | – |
| Oc1cccc2cccnc12 [8-hydroxyquinoline] | – | – | – | Enzyme activity on adding inhibitor (activity with no inhibitor defined as 100) [1]: 90 |
| O=C(O)CI [iodoacetate] | – | – | – | Enzyme activity on adding inhibitor (activity with no inhibitor defined as 100) [2]: 100 |
| O[C@H](CS)[C@H](O)CS (racemic) [dithiothreitol] | 100 | – | – | – |
| [Cl][Hg][Cl] [HgCl2] | 20 | – | – | Enzyme activity on adding inhibitor (activity with no inhibitor defined as 100) [2, 6]: 23 |
| O=[N+]([O-])[O-].[Ag+] [AgNO3] | 30 | – | – | – |
| OCCCO [1,3-propanediol] | – | 3.3 | 0 | – |
| c1ccc(-c2ccccn2)nc1 [α,α'-dipyridyl] | 85 | – | – | – |
| O=C(O)c1cc[c]([Hg][Cl])cc1 [PCMB, p-chloromercuribenzoate] | 50 | – | – | Enzyme activity on adding inhibitor (activity with no inhibitor defined as 100) [2, 6]: 108 |
| Cc1ccc2ccc3ccc(C)nc3c2n1 [neocuproine] | 100 | – | – | – |
| CC(O)CO (stereo not shown) [1,2-propanediol] | – | 10.5 | 0 | – |
| CCO [ethanol] | – | 0 | 0 | – |
| CCN1C(=O)C=CC1=O [N-ethylmaleimide] | 100 | – | – | – |
| CCCO [n-propyl alcohol] | – | 0 | 0 | – |
| N[C@@H](CS)C(=O)O [cysteine] | – | – | – | Enzyme activity on adding inhibitor (activity with no inhibitor defined as 100) [2, 6]: 60 |
| CC(O)C(C)O (stereo not shown) [2,3-butanediol] | – | 0.3 | 0 | – |
| O=S(=O)([O-])[O-].[Zn+2] [ZnSO4] | – | – | – | Enzyme activity on adding inhibitor (activity with no inhibitor defined as 100) [2, 6]: 23 |
| CC(C)O [isopropyl alcohol] | – | 0 | 0 | – |
| Cl.NO [NH2 OH--HCl] | 0 | – | – | Enzyme activity on adding inhibitor (activity with no inhibitor defined as 100) [2, 6]: 0 |
| [N-]=[N+]=[N-].[Na+] [NaN3] | 20 | – | – | – |
| O=S(=O)([O-])[O-].[Fe+2] [FeSO4] | – | – | – | Enzyme activity on adding inhibitor (activity with no inhibitor defined as 100) [2, 6]: 0 |
| OCC(O)CO [glycerol] | – | 100 | 100 | – |
| CC(=O)[O-].CC(=O)[O-].[Pb+2] [Pb(CH3 COO)2] | 15 | – | – | – |
| OCCCCO [1,4-butanediol] | – | 0.3 | 0 | – |
| c1cnc2c(c1)ccc1cccnc12 [0-phenanthroline] | 90 | – | – | – |
